In US20040176323A1, “Pharmaceutical composition comprising lysophophatidic acid” (priority 2001, published 2004):

What was measured:
[1] = test system: ICR mice with sepsis induced by cecal ligation and puncture; experiment: Cecal ligation and puncture (CLP) model test, survival in sepsis; type: in vivo; conditions: 5 ICR mice; for 48-hour survival rate (%) (Mice survived/All mice): control 0% (0/5); for 24-hour survival rate (%) (Mice survived/All mice): control 20% (1/5)
Description: Cecal Ligation and Puncture (CLP) Model Test
To verify excellent preventive and therapeutic effects of LPA as an effective ingredient of the pharmaceutical composition according to the present invention on sepsis, this test using CLP model animals in which sepsis was caused by inducing peritonitis by cecal ligation and puncture was undertaken.
After anesthetizing 15 ICR mice (weighing about 25 to 30 g; availably from MJ Ltd.) with pentobarbital, a right region of their abdomen was excised in 1 cm length to expose cecum, followed by ligating the lower area of ileocecal valve, making six punctures on the cecum with a 21 gauge needle and then suturing the abdomen, thereby inducing sepsis with the model mice.
At 2 and 4 hours after suturing, LPA(oleoyl-sn-glycerol-3-phosphate; Sigma Co.) dissolved in 10% DMSO solution was intraperitoneally administered to 5 ICR mice at a dose of about 10 mg/kg (Group A) and to another 5 ICR mice at a dose of about 50 mg/kg (Group B), and only a 10% DMSO solution was intraperitoneally administered to the other 5 ICR mice (Control group). The survival rates of ICR mice in groups A and B and control group were investigated in course of time.

[2] = test system: Sprague-Dawley rats with permanent focal cerebral ischemia by occlusion of middle cerebral artery; experiment: Rat model with permanent focal cerebral ischemia by occlusion of middle cerebral artery, infarct area and volume; type: in vivo; conditions: 20 mg/kg subcutaneously at 1 hour before and 2 and 6 hours after surgery
Description: To verify excellent preventive and therapeutic effects of LPA as an effective component of the pharmaceutical composition according to the present invention on stroke, the test using rat models induced with permanent focal cerebral ischemia by occlusion of middle cerebral artery, designed as follows, was undertaken.
Rat Model Induced with Permanent Focal Cerebral Ischemia by Occulusion of Middle Cerebral Artery
12 male Sprague-Dawley rats weighing about 250 to 269 g, were anaesthetized through inhalation of a mixed solution of 70% […] and 30% oxygen gas, the solution containing 2% isoflurane (Choongwae Pharma Corp., Korea), and then subjected to a slightly modified Nagasawa and Kogure's method (Nagasawa H and Kogure K (1989) Correlation between cerebral blood flow and histologic changes in a new rat model of middle cerebral artery occlusion. Stroke 20: 1037-1043), leading to occlusion of their right middle cerebral artery. Specifically, rats were anaesthetized, and then their cervix was incised along by the middle line of their neck. Then, after separately ligating their right common carotid artery and their external carotid artery carefully so as not to cause damage to their vagus nerve, the junction of their internal carotid artery were slightly cut and then a 17 mm long silicon rubber cylinder was carefully inserted thereinto, followed by ligating the internal carotid artery on the inserted cylinder. […]
At 24 hours after surgery, the rats of the test group and the control group were decapitated, and their brains were rapidly extracted, followed by washing with a cold saline solution. […] After the brain sections stained with TTC were fixed with 10% phosphate-buffered formalin, the area of cerebral infarcts on the posterior side of each section, which was visualized as an area of unstained tissue, was determined separately for cortex and striatum, by using an image analyzer.
In order to correct a change in the area of cerebral infarcts due to cerebral edema, the area of cerebral infarcts on each section was determined by subtracting the […] area in the right hemisphere with occluded middle cerebral artery from the area of the left hemisphere with unoccluded middle cerebral artery. Total areas of cerebral infarcts, obtained by summing the areas of infarcts in cortex and striatum that were measured at each brain section, were averaged, and the results were shown in FIG. 1. […]

[3] = Group A: about 10 mg/kg intraperitoneally at 2 and 4 hours after suturing
[4] = Group B: about 50 mg/kg intraperitoneally at 2 and 4 hours after suturing
[5] = 24 hours after surgery, mean±standard deviation, 4 test rats, p<0.001

oleoyl-sn-glycerol-3-phosphate [LPA]
48-hour survival rate (%) (Mice survived/All mice) [1, 3]: 40% (2/5)
24-hour survival rate (%) (Mice survived/All mice) [1, 3]: 60% (3/5)
48-hour survival rate (%) (Mice survived/All mice) [1, 4]: 40% (2/5)
24-hour survival rate (%) (Mice survived/All mice) [1, 4]: 60% (3/5)
reduction of the infarcted volume in cortex compared with control group rats [2, 5]: 44.6±3.6%
reduction of the infarcted volume in striatum compared with control group rats [2, 5]: 55.3±21.0%
reduction of total infarcted volume compared with control group rats [2, 5]: 47.8±7.1%
total area of infarcts (cortex and striatum) compared to control group rats ([2]; measured 24 hours after surgery, FIG. 1): noticeable reduction in total area of infarcts
